The results in this text go back to paper PMC7614683, “A small molecule PI3Kα activator for cardioprotection and neuroregeneration” (Nature, 2023).

One assay has as its system PI3Kα-WT A549 cells. As to the kind of experiment: TIRF microscopy of PIP3 reporter, PI3Kα-WT A549. Type of assay: cell-based, human. To be noted: 1938, then BYL719 0.5 μM. As to the method:
Phosphoinositide reporters used were GFP-PH-ARNO^I303Ex2 (PIP3 reporter[41]) and mCherry-cPH-TAPP1x3 (PI(3,4)P2 reporter[41]). TIRF microscopy allows selective imaging of the small cell volume, including the plasma membrane, directly adjacent to the coverslip onto which cells have been seeded. HeLa or A549 cells were seeded in Matrigel-coated (Corning #354230; diluted in Opti-MEM at 1:50) 8-well chamber slides (glass bottom, 1.55 refractive index; Thermo Fisher Scientific #155409) at a density of 5,000 cells/well. […]
Image analyses of total reporter intensities were performed with the Fiji open source image analysis package. The region of interest (ROI) corresponding to the footprint of the individual cell across time points were defined using minimal intensity projection to select only pixels present across all time points, following prior subtraction of camera noise (rolling ball method, radius = 500 pixels) and xy drift correction, intensity levels over time were measured. […] All other quantifications were performed using the open source software R/RStudio. The values plotted in Fig. 3d (iii) represent mean±SEM, following signal scaling to minimum and maximum values of the normalised fluorescence intensity for each time point (Fn(t)). […]

In another assay the test system is adult rat DRG neurons. As to the kind of experiment: Neurite outgrowth in dissociated adult rat dorsal root ganglion cultures. Type of assay: cell-based. To be noted: 72h; BYL719 500 nM with 1938 above 10^-7 M. The text has this:
Dissociated adult rat dorsal root ganglion (DRG) cultures were used as an in vitro model for neuroregeneration[80],[81]. DRG neurons were isolated from adult male (>250g) Wistar rats as described, with DRGs from each rat cultured separately. Following culling via schedule 1 (rising concentration of CO2), the spinal column was removed and stored in PBS on ice. Cord tissue was removed to expose the DRGs and roots in the intervertebral foramen and the DRGs removed with forceps and scalpel under a dissecting microscope (Olympus SZ40). DRGs were manually cleaned by removal of roots, capsule and capillaries with forceps and then placed in DMEM supplemented with P/S. DRGs were treated with 0.125% collagenase type IV solution at 37°C for 90 min, and then mechanically dissociated by trituration using a 1 ml pipette. The collagenase solution was removed by 2 rounds of centrifugation in complete DMEM (DMEM with 1% P/S and 10% FBS) at 400 xg for 5 min, followed by resuspension of the DRG cell pellet in complete DMEM supplemented with 0.01 mM cytosine arabinoside. DRGs were plated in 75-cm[2] flasks coated with 0.1 mg/ml poly-D-lysine and incubated at 37°C, 5% CO2. […] 9 fields per well were captured and analysed using the CSIRO Neurite Analysis 2 […] in Columbus analysis software (Perkin Elmer). […]

For the molecule `Cc1nc(NC(=O)N2CCC[C@H]2C(N)=O)sc1-c1ccnc(C(C)(C)C(F)(F)F)c1` [BYL719, reference compound], in the assay with PI3Kα-WT A549 cells, the “plasma membrane PIP3 (biosensor)” value is “fully and acutely neutralized”. The “neurite outgrowth (total length of neurites)” value in the assay on adult rat DRG neurons is given as “partially reduced the increase in neurite outgrowth”.
